Source: US8420606B2, “Method of utilizing physiological activity of rare saccharide and composition containing rare saccharide” (priority 2002, dated 2013)

Experiments:
[1] = test system: glutamate release from hippocampus; test: temporary brain ischemia, glutamate outside hippocampus neurons by micro-dialysis; assay type: in vivo, gerbil; details: pre-administration; compared with effect of D-allose
Method: (2) Method: The bilateral common carotid artery of a gerbil was shut off for 5 minutes. After 1 week, the gerbil was sacrificed and a sample was prepared in accordance with the ordinary method, followed by hematoxyline eosin dyeing. The survival rate was measured by counting the number of hippocampus neurons while looking at them under a microscope. Experiments were performed on a normal control group, a group subjected to only ischemia, and a group administrated with 200 mg/kg of D-allose or D-psicose before ischemia. It is known that glutamates released in large amount from the neurons with ischemia are toxic to the neurons. Such a point was examined by fixing the gerbil to a brain position fixing device, perfusing a solution, in which oxidase glutamate is dissolved, to the hippocampus through a probe for micro-dialysis, and measuring the glutamate concentration outside the hippocampus neurons. Also, the inventors have clarified the relationship between the metabolism of glucose and the action mechanism of D-allose with ischemia by pre-administrating D-allose and 2-deoxiglucose.

[2] = test system: Hepatic cancer cells (HepG2); test: proliferation of cultured cells, MTT method, HepG2; assay type: cell-based, human; details: saccharide 50 mM, 4 to 5 days
Method: (§1) Various kinds of rare saccharides were added at a concentration of 50 mM to culture media under the following conditions, and an influence of each rare saccharide upon the progress of proliferation of cancer cell strains was examined.
(§2) (1) Target cells to which the rare saccharides were added: Hepatic cancer cells (HepG2), uterine cancer cells (He1a), ovary cancer cells (OVCAR3), and skin keratinocyte (HaCaT) were selected as target cells to which the rare saccharides were added.
(§3) (2) Rare saccharides added: In addition to D-allose, glucose and D-altros as rare saccharides belonging to ketose were added, as other comparative saccharides, to the addition target cells. Also, D-fructose was employed as a control.
(§4) (3) Experiment method: A number 3,000-5,000 of addition target cells per type were inoculated into a multi-well plastic dish (hereinafter referred to as a “well”) having 96 wells, and were cultured for 4 to 5 days in a culture medium supplemented with 5 to 10% of Fetal Bovine Serum (FBS) depending on the cell types. D-Allose, D-glucose and D-altros were each added at concentration of 50 mM to the addition target cells per type. Similarly, D-fructose as a control was added at a concentration of 50 mM. To examine the influence upon the cell proliferation, the cell number was measured in units of 24 hours by using the MTT method described below.
(1) Preparation of reagents: A predetermined amount of MTT (tetrazolium salt) was dissolved in PBS(−) sterilized in an autoclave to obtain an MTT solution through filtering and sterilization. An acidic solution was prepared by adding 50 mL of N,N-dimethylformaldehyde and water to a predetermined amount of (20 g) of SDS, thereby obtaining a 100 mL of solution. […]
(2) Test method: The cells were treated with TEP to prepare a cell suspension liquid. […] The absorbance of the liquid was measured at a wavelength of 570 to 600 nm by using a spectrophotometer. After dissolving the colored substance (formazan) in the acid solution, the absorbance can be measured directly by a plate reader.

[3] = test system: ovary cancer cells (OVCAR3); test: proliferation of cultured cells, MTT method, OVCAR3; assay type: cell-based; details: saccharide 50 mM, 4 to 5 days, MTT
Method: as §1, §2, §3, §4
(1) Preparation of reagents: A predetermined amount of MTT (tetrazolium salt) was dissolved in PBS(−) sterilized in an autoclave to obtain an MTT solution through filtering and sterilization. An acidic solution was prepared by adding 50 mL of N,N-dimethylformaldehyde and water to a predetermined amount of (20 g) of SDS, thereby obtaining a 100 mL of solution. About […] of 1N hydrochloric acid was added to the solution for adjustment of a pH-value to 4.7. The solution was preserved at room temperature and warmed up to 37° C. just before the use.
(2) Test method: The cells were treated with TEP to prepare a cell suspension liquid. This cell suspension liquid was pipetted in a predetermined cell-density (300 to 52000 cells/well) to each well (96-well plate: 0.1 mL of culture medium per well). The saccharide as a drug was added in a predetermined amount to each well, followed by cultivation for a whole day and night in a CO2 incubator. Then, 0.5 mg/mL of the MTT solution was added and the resulting culture was incubated for 4 hours in the incubator. Thereafter, the culture medium was completely removed. Then, in a room kept at 37° C., an acid solution was added in amount of 0.1 mL/well. The well plate was placed on a micro-plate mixer and shaken at 37° C. for 20 minutes to dissolve a colored substance (namely, to dissolve “formazan” in the acid solution). The absorbance of the liquid was measured at a wavelength of 570 to 600 nm by using a spectrophotometer. After dissolving the colored substance (formazan) in the acid solution, the absorbance can be measured directly by a plate reader.
(1) Experiment method: The ovary cancer cells (OVCAR3) were selected as target cells to which a rare saccharide was added, and D-allose as the saccharide was added at concentrations of 1 mM, 5 mM, 10 mM, 20 mM, 50 mM and 100 mM. The experimental conditions, such as the method of culturing the ovary cancer cells (OVCAR3) and the method of measuring the cell number (MTT method), were the same as those in Example 1.

[4] = test system: skin keratinocyte (HaCaT); test: proliferation of cultured cells, MTT method, HaCaT; assay type: cell-based, human; details: saccharide 50 mM, 4 to 5 days
Method: as §1, §2, §3
(3) Experiment method: A number 3,000-5,000 of addition target cells per type were inoculated into a multi-well plastic dish (hereinafter referred to as a “well”) having 96 wells, and were cultured for 4 to 5 days in a culture medium supplemented with 5 to 10% of Fetal Bovine Serum (FBS) depending on the cell types. […] To examine the influence upon the cell proliferation, the cell number was measured in units of 24 hours by using the MTT method described below. […]
(2) Test method: The cells were treated with TEP to prepare a cell suspension liquid. […] The absorbance of the liquid was measured at a wavelength of 570 to 600 nm by using a spectrophotometer. […]

[5] = test system: HL-60; test: blood-system cancer cell strain proliferation, Coulter Counter, HL60; assay type: cell-based; details: 0.05-50 mM, 7 days, D-glucose control
Method: (§5) (2) Method: Total 6 kinds of cell strains, i.e., Myeloid (HL-60, THP-1, KG-1), T-cell (MT-2), and B-Cell (Daudi, KS-1), and 3 kinds of rare saccharides (i.e., D-psicose, D-altrose, and D-allose), were employed. The culture medium and the cells were prepared to be 1 mL in total and 1×10^5 in number, respectively. Then, the cell number at each of fourth day and seventh day was counted by using a Coulter Counter. Each rare saccharide was added at concentrations of 0.05, 0.5, 5 and 50 mM, while D-glucose was used as a control.
(§6) Culture Medium: FBS 10% added RPMI1460
(§7) Cultivation Conditions: 37° C., 5% CO2
(§8) Cultivation Vessel: FALCON, MULTIWELL, 12 wells
(§9) Number of Cultivation Days: 7 days
(§10) Saccharides Concentration: 0.05, 0.5, 5, 50 mM

[6] = test system: Daudi; test: blood-system cancer cell strain proliferation, Coulter Counter, Daudi; assay type: cell-based; details: 0.05-50 mM, 7 days, D-glucose control
Method: as §5, §6, §7, §8, §9, §10

[7] = test system: Rat leukocyte (granulocyte); test: production of active oxygen from leukocyte, LO12 chemiluminescence, zymosan; assay type: cell-based; details: saccharide 10 mM added to the producing system, zymosan
Method: Influences of various kinds of rare saccharides upon production of active oxygen from leukocyte were examined under the conditions given below. In this Example 5, an effect against the production of active oxygen from leukocyte was examined with LO12 chemiluminescence.
(1) Target leukocyte to which the rare saccharides were added: Rat leukocyte (granulocyte) was used.
(2) Rare saccharides added: In addition to D-allose as a rare saccharide belonging to aldose, D-psicose and D-altros as rare saccharides belonging to ketose and D-tallitol belong to polyol were added as other comparative saccharides. Further, D-glucose and D-fructose were employed as saccharides abundant in the natural world.
(3) Experiment method: (1) Changes over time in production of active oxygen from rat leukocyte . . . The time-dependent progress in production of active oxygen caused by adding zymosan particles to rat leukocyte (granulocyte) was examined. Also, the time-dependent progress in production of active oxygen caused under the presence of each of the rare saccharides was examined.
(2) Influences of rare saccharides upon production of active oxygen . . . By adding the various saccharides to the system for producing active oxygen from leukocyte, the amount of produced active oxygen was measured for each saccharide. The concentration of each of the added rare saccharides was set to 10 mM. Also, the measurement was made under the condition without addition of any saccharides.
(3) Effect of rare saccharides upon production of active oxygen . . . The rare saccharides were each added at concentration of 10 mM after the start of phagocytosis and the start of the production of active oxygen subsequent to addition of zymosan to leukocyte.
(4) Concentration dependency of active-oxygen production inhibitory effect of D-allose . . . Concentration dependency of the active-oxygen production inhibitory effect of D-allose was examined. D-allose was added at concentration of 0 mM, 5 mM and 10 mM.

[8] = molecular target: human albumin (Homo sapiens, UniProt P02768); test: saccharification (glycation) of albumin, glycoalbumin reagent; assay type: biochemical; details: albumin 3 g/dl
Chain of human albumin (P02768 25-609): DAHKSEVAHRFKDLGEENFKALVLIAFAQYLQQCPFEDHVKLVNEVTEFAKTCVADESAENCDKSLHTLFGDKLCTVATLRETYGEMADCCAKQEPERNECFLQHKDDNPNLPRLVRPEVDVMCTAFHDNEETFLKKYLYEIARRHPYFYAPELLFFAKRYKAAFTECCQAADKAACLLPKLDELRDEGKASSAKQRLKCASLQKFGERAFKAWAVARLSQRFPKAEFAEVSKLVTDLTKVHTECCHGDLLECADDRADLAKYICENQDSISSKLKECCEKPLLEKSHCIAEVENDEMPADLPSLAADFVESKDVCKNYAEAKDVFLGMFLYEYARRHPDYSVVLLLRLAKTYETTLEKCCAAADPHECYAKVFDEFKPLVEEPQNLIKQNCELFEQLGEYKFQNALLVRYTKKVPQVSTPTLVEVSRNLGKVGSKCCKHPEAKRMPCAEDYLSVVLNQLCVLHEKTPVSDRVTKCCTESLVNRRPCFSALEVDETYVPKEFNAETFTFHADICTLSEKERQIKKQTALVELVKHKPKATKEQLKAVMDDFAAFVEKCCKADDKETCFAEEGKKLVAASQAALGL
Method: (2) Method: After fragmenting albumin into amino acids by using protease K, i.e., glycoalbumin (GA) measurement reagent (made by Oriental Yeast Co., Ltd.), glycolysine was measured by using ketoamine oxydase (see FIG. 38). Glycation of human albumin with various rare saccharides was examined. A sample was prepared through the steps of dissolving 3 g/dl of pure human albumin in PBS and then dissolving each of the rare saccharides so as to prepare a solution in final concentration of 55.5 mM. The prepared solution was filtrated with a filter of 0.25 μm mesh and sterilized, followed by incubation at 37° C. for 7 days. During the incubation, the GA concentration (glycolysine concentration) was measured at intervals of exactly 24 hours. Further, similar experiments were conducted by adding each of the rare saccharides in an albumin solution (final concentration 3 g/dl) and a glucose solution (final concentration 55.5 mM) so that each of the rare saccharides had final concentration of 55.5 mM.

[9] = saccharide 55.5 mM, 37° C., 7 days

Q: How did the “glutamate release inhibitory effect” value [1] turn out when `O=CC[C@@H](O)[C@H](O)[C@H](O)CO` [2-deoxyglucose, reference compound] was run?
A: The value was “similarly observed”.

Q: Which “proliferation of HepG2 cells (cell number over time)” value [2] does the source give for `O=C[C@@H](O)[C@H](O)[C@H](O)[C@H](O)CO` [D-altrose, reference compound] here?
A: Its value is “weaker than that of D-allose”.

Q: And the “proliferation of OVCAR3 cells (cell number over time)” value [3]?
A: Its value is “weaker than that of D-allose”.

Q: And the “proliferation of HaCaT cells (cell number over time)” value [4]?
A: Its value is “inhibitory effect at a medium level”.

Q: What about the “HL60 proliferation inhibitory effect” value [5] of the same compound?
A: The value was “showed no effect”.

Q: And the “Daudi-cell proliferation inhibitory effect” value [6]?
A: Its value is “showed no effect”.

Q: What about the “production of active oxygen from leukocyte” value [7] of the same compound?
A: Its value is “No inhibitory effect”.

Q: How did the “glycation (saccharification) of albumin” value [8, 9] turn out when `O=C(CO)[C@@H](O)[C@H](O)[C@H](O)CO` [D-fructose, reference compound] was run?
A: Its value is “do not cause the saccharification”.

Q: With `O=C[C@@H](O)[C@@H](O)[C@H](O)[C@H](O)CO` [D-mannose, reference compound] as the compound, how does the “saccharification rate of albumin under coexistence with glucose” value ([8]; saccharide 55.5 mM + D-glucose 55.5 mM) read?
A: Its value is “about 100 μmol/day”.

Q: What about the “saccharification rate of albumin” value [8, 9] of the same compound?
A: Its value is “about 50 μmol/day”.

Q: Which “production of active oxygen from leukocyte” value [7] does the source give for `OC[C@@H](O)[C@H](O)[C@H](O)[C@H](O)CO` [D-tallitol, reference compound] here?
A: The value was “No inhibitory effect”.
